# Literature values, collected in patent US20090318370A1, “NOVEL GLYCOCONJUGATED CHLORIN DERIVATIVES AND METHOD OF PRODUCING THE SAME” (REI Medical Co., Ltd., priority 2007, published 2009).
# Test system: some cells
# Settings: non patent reference 2; cited from earlier work
smiles,measurement,value
"OC[C@H]1OC(Sc2c(F)c(F)c(-c3c4nc(c(-c5c(F)c(F)c(SC6O[C@H](CO)[C@@H](O)[C@H](O)[C@H]6O)c(F)c5F)c5ccc([nH]5)c(-c5c(F)c(F)c(SC6O[C@H](CO)[C@@H](O)[C@H](O)[C@H]6O)c(F)c5F)c5nc(c(-c6c(F)c(F)c(SC7O[C@H](CO)[C@@H](O)[C@H](O)[C@H]7O)c(F)c6F)c6ccc3[nH]6)C=C5)C=C4)c(F)c2F)[C@H](O)[C@@H](O)[C@@H]1O (stereo partly shown) [5,10,15,20-tetrakis(4,1′-thio-glucosyl-2,3,5,6-tetrafluorophenyl)porphyrin]",cell death with irradiation of light,cell death can be observed with irradiation of light
